According to ChEMBL document CHEMBL5233253, “β-Lactams as promising anticancer agents: Molecular hybrids, structure activity relationships and potential targets” (Eur J Med Chem, 2020):

Tests used:
HEK293 = assay: Antiproliferative activity against human HEK293 cells assessed as inhibition of cell growth measured after 48 hrs by MTT assay; format: functional, cell-based; conditions: HEK293, 48 h
MCF7 = assay: Cytotoxicity against human MCF7 cells assessed as inhibition of cell growth by MTT assay; format: functional, cell-based
A549 = assay: Cytotoxicity against human A549 cells assessed as inhibition of cell growth by MTT assay; format: functional, cell-based
[1] = Inhibition of Klebsiella pneumoniae beta Metallo-beta-lactamase IMP-28
[2] = Anti-keratosis activity in vitamin-A-deficient hamster trachea in presence of beta-lactamase; format: functional, tissue-based, Cricetulus griseus
HT-1080 = assay: Cytotoxicity against human HT-1080 cells assessed reduction in cell viability; format: functional, cell-based
Tubulin = assay: Inhibition of tubulin (unknown origin) polymerization incubated for 5 mins by spectrophotometer analysis; format: protein-complex assay, Homo sapiens
Heat shock protein HSP90 = Heat shock protein HSP90 (Homo sapiens, UniProt P07900+P08238); assay: Inhibition of HSP90 (unknown origin); format: protein assay
L1210 = assay: Cytotoxicity against mouse L1210 cells assessed as reduction in cell viability; format: functional, cell-based
CCRF-CEM = assay: Cytotoxicity against human CEM cells assessed reduction in cell viability; format: functional, cell-based

C[C@H](CCC(=O)OCc1cn([C@@H]2C(=O)N(CCN3C(=O)[C@@H](n4cc(COC(=O)CC[C@@H](C)[C@H]5CC[C@H]6[C@@H]7[C@H](O)C[C@@H]8C[C@H](O)CC[C@]8(C)[C@H]7C[C@H](O)[C@]56C)nn4)[C@H]3c3ccccc3)[C@@H]2c2ccccc2)nn1)[C@H]1CC[C@H]2[C@@H]3CC[C@@H]4C[C@H](O)CC[C@]4(C)[C@H]3C[C@H](O)[C@]12C
IC50 (HEK293): 10 µM

CC(O)C1C(=O)NC1OC(=O)/C=C/c1ccc(Cl)cc1 (centres undefined)
IC50 (MCF7): 1.59 µM | IC50 (A549): 1.59 µM

O=C(O)c1ccc(COC(=O)[C@H]2[C@@H](Cc3ccccc3)C(=O)N2C(=O)Cc2cccc(C(=O)OCc3ccccc3)c2)cc1
IC50 [1]: 0.34 µM

CC(O)C1C(=O)NC1OC(=O)/C=C/c1ccc(Br)cc1 (centres undefined)
IC50 (MCF7): 1.59 µM | IC50 (A549): 1.59 µM

CC1=C(/C=C/C(C)=C/C=C/C(C)=C/C(=O)OCC2=C(C(=O)O)N3C(=O)[C@@H](NC(=O)COc4ccccc4)[C@H]3[S+]([O-])C2)C(C)(C)CCC1 (some centres undefined)
EC50 [2]: 0.0391 nM

CC(O)C1C(=O)NC1OC(=O)/C=C/c1ccccc1 (centres undefined)
IC50 (MCF7): 1.59 µM | IC50 (A549): 1.59 µM

O=C(OCc1ccccc1)[C@H]1[C@@H](Cc2ccc(O)cc2)C(=O)N1C(=O)c1ccccc1
IC50 [1]: 0.34 µM

C[C@H](CCC(=O)NCc1cn([C@@H]2C(=O)N(CCN3C(=O)[C@@H](n4cc(CNC(=O)CC[C@@H](C)[C@H]5CC[C@H]6[C@@H]7[C@H](O)C[C@@H]8C[C@H](O)CC[C@]8(C)[C@H]7C[C@H](O)[C@]56C)nn4)[C@H]3c3ccccc3)[C@@H]2c2ccccc2)nn1)[C@H]1CC[C@H]2[C@@H]3CC[C@@H]4C[C@H](O)CC[C@]4(C)[C@H]3C[C@H](O)[C@]12C
IC50 (HEK293): 100 µM

CC(O)C1C(=O)NC1OC(=O)/C=C/c1ccc(N)cc1 (centres undefined)
IC50 (MCF7): 1.59 µM | IC50 (A549): 1.59 µM

COc1ccc(/C=C/C(=O)OC2NC(=O)C2C(C)O)cc1 (centres undefined)
IC50 (MCF7): 1.59 µM | IC50 (A549): 1.59 µM

C=C(C)[C@H](C(=O)OC(c1ccccc1)c1ccccc1)N1C(=O)/C(=C/C(=O)OC(C)(C)C)[C@H]1SSc1nc2ccccc2s1
IC50 (HT-1080): 0.4 µM

COc1cc(N2C(=O)[C@H](c3cccs3)[C@H]2c2cccc(N=[N+]=[N-])c2)cc(OC)c1OC
IC50 (Tubulin): 2.26 µM

O=C(OCc1ccccc1)c1cccc(CC(=O)N2C(=O)[C@H](Cc3ccccc3)[C@@H]2C(=O)OCc2ccccc2)c1
IC50 [1]: 0.34 µM

C[C@H](CCC(=O)NCc1cn([C@@H]2C(=O)N(CCN3C(=O)[C@@H](n4cc(CNC(=O)CC[C@@H](C)[C@H]5CC[C@H]6[C@@H]7CC[C@@H]8C[C@H](O)CC[C@]8(C)[C@H]7C[C@H](O)[C@]56C)nn4)[C@H]3c3ccccc3)[C@@H]2c2ccccc2)nn1)[C@H]1CC[C@H]2[C@@H]3CC[C@@H]4C[C@H](O)CC[C@]4(C)[C@H]3C[C@H](O)[C@]12C
IC50 (HEK293): 500 µM

O=C(OCc1ccccc1)c1cccc(CC(=O)N2C(=O)[C@H](Cc3ccc(O)cc3)[C@@H]2C(=O)OCc2ccccc2)c1
IC50 [1]: 0.34 µM

CCc1cc([C@@H]2CC(=O)N2c2ccc3c(c2)OCCO3)c(O)cc1O
IC50 (Heat shock protein HSP90): 5.6 µM

Cc1cn(CCCN2C(=O)C(OCc3ccccc3)C2c2ccc(Br)cc2)c(=O)n(CCCN2C(=O)C(OCc3ccccc3)C2c2ccc(Br)cc2)c1=O (centres undefined)
IC50 (L1210): 4.1 µM | IC50 (CCRF-CEM): 3.4 µM

C[C@H](CCC(=O)OCc1cn([C@@H]2C(=O)N(CCN3C(=O)[C@@H](n4cc(COC(=O)CC[C@@H](C)[C@H]5CC[C@H]6[C@@H]7CC[C@@H]8C[C@H](O)CC[C@]8(C)[C@H]7C[C@H](O)[C@]56C)nn4)[C@H]3c3ccccc3)[C@@H]2c2ccccc2)nn1)[C@H]1CC[C@H]2[C@@H]3CC[C@@H]4C[C@H](O)CC[C@]4(C)[C@H]3C[C@H](O)[C@]12C
IC50 (HEK293): > 1000 µM
